Format in all cases: cell-based, human
The subject of assay [1] is pre-OPCs. The experiment in a line: HD-DoE 12-factor model for stage 2 (version 1), 3 days on stage 1 pre-OPCs. The note with it: for factor contribution: optimized for maximum expression of OLIG2 at 1841.6. The method, boiled down:
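Cells grown first in stage 1 medium were treated for 3 days with combinations of 8 or 12 factors, including FGF, TGF-b, WNT, RA, AKT, SHH, mTOR and PKC pathway modulators. Gene expression was modelled and maximized for OLIG2, with NKX2-2, SOX10, OLIG1 and PDGFRa tracked by dynamic profile analysis.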

For assay [2], the system named is pre-OPCs. The experiment in a line: HD-DoE 8-factor model for stage 2 (version 2) on pre-OPCs. The settings on record: positive. The protocol: To engineer the recipe of stage 2 of differentiation, cells were first cultured in the stage 1 media described in Example 1, then, 48 or 96 different combinations of effectors generated using Design-of-Experiments compression through D-optimality were robotically prepared. The effector combinations were prepared in a basal media and were subsequently added to the cells, which were then allowed to differentiate. Three days later RNA extraction was performed, and gene expression was obtained using quantitative PCR analysis. The data was normalized and modeled using partial least squares regression analysis to the effector design, resulting in the generation of gene-specific models, which after model tuning for maximal predictive power, provided explanation of the effectors ability to control the expression of individual genes, combinatorically, and individually. Solutions within the tested space could then be explored to address desirability.
At this point, due to short duration of culture (only six days in vitro) we decided to focus on maximal expression of OLIG2 and maintenance of high expression of NKX2-2, while initiating expression of SOX10, OLIG1 and PDGFRa, to guide the cells towards oligodendrocyte fate (Emery and Lu (2015). Cold Spring Harb Perspect Biol. 7:a020461; Perlman et al. (2020). Glia 68:1291-1303; Goldman and Kuypers (2015) Development 142:3983-95). In one 8-factor model, the individual and combinatorial impact of CHIR99021 (a WNT pathway agonist), AGN193109 (an RA pathway antagonist), FGF-2 (an FGFR agonist), Purmorphamine (an SHH pathway agonist), AICAR (an AMPK agonist), GW3965 (an LXR pathway agonist), GW590735 (a PPAR-a agonist) and AZD3147 (a mTOR antagonist) on further differentiation of cells were tested.

For assay [3], the system named is cells cultured in stage 1 and stage 2 differentiation media. As to the kind of experiment: HD-DoE 8-factor model for stage 3 (version 2). The settings on record: for factor contribution: positive.
Where [4] appears, read: optimized for maximum expression of OLIG1 at 454.7.
Where [5] appears, read: optimized for maximum expression of OLIG2 at 3325.

Values joined by “and” are separate entries in the source; they are usually repeats but may differ in a detail not shown here. Identical values can stand only once.

Consider “FGF2: FGF pathway activator, an FGFR agonist”, for which the factor contribution in the assay with pre-OPCs [1] (positive regulatory effect) turned out to be 12.9; in the assay on pre-OPCs [2] (setting [4]) it was 9.9; with pre-OPCs [2] (setting [5]), 5.2; in assay [3] (optimized for SOX10 at 41.04), 15.3. Further, the “effect on late OPC genes and neuronal genes” value in assay [3] (factor plots vs concentration) is “increased the expression levels of OPC genes while decreasing the expression levels of neuronal genes”.
Consider `c1ccc2c(Oc3nc(Nc4ccc(N5CCOCC5)cc4)c4ncn(C5CCCCC5)c4n3)cccc2c1` [Purmorphamine], for which the “effect on expression of SOX10” value in the assay with pre-OPCs [1] (dynamic profile, model maximized for OLIG2) is “positively regulate”. Besides, the factor contribution is 7.2 with pre-OPCs [1] (negative impact); 22.75 with pre-OPCs [2] (setting [4]); 7.39 in the assay with pre-OPCs [2] (setting [5]); 20.6 and 20.61 in assay [3] (optimized for maximum expression of PDGFRa at 853.4).

The record behind these values is US12729368B2, “Methods and compositions for generating oligodendrocyte progenitor cells” (Trailhead Biosystems Inc., priority 2022, dated 2026).
